In PubChem BioAssay (NCI):
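Exposure lasted 48 hours, with cells grown in 96-well plates and compounds tested at five concentrations. The concentration for full growth arrest is given as TGI.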

Tests used:
Experiment in all cases: DTP human tumour cell line panel, 48 h
786-0 renal = test system: 786-0 renal
A549 NSCLC = test system: A549 NSCLC
ACHN renal = test system: ACHN renal
HCC-2998 colon = test system: HCC-2998 colon
HL-60(TB) leukemia = test system: HL-60(TB) leukemia
HOP-92 NSCLC = test system: HOP-92 NSCLC
HS 578T breast = test system: HS 578T breast
MALME-3M melanoma = test system: MALME-3M melanoma
MDA-N = test system: MDA-N
NCI-H226 lung = test system: NCI-H226 lung
OVCAR-5 ovarian = test system: OVCAR-5 ovarian
PC-3 prostate = test system: PC-3 prostate
RPMI-8226 leukemia = test system: RPMI-8226 leukemia
SN12C renal = test system: SN12C renal
TK-10 renal = test system: TK-10 renal
UACC-257 melanoma = test system: UACC-257 melanoma
UACC-62 melanoma = test system: UACC-62 melanoma
UO-31 renal = test system: UO-31 renal
CAKI-1 renal = test system: CAKI-1 renal
BT-549 breast = test system: BT-549 breast

Row | Compound | TGI (786-0 renal) [µM] | TGI (A549 NSCLC) [µM] | TGI (ACHN renal) [µM] | TGI (HCC-2998 colon) [µM] | TGI (HL-60(TB) leukemia) [µM] | TGI (HOP-92 NSCLC) [µM] | TGI (HS 578T breast) [µM] | TGI (MALME-3M melanoma) [µM] | TGI (MDA-N) [µM] | TGI (NCI-H226 lung) [µM] | TGI (OVCAR-5 ovarian) [µM] | TGI (PC-3 prostate) [µM] | TGI (RPMI-8226 leukemia) [µM] | TGI (SN12C renal) [µM] | TGI (TK-10 renal) [µM] | TGI (UACC-257 melanoma) [µM] | TGI (UACC-62 melanoma) [µM] | TGI (UO-31 renal) [µM] | TGI (CAKI-1 renal) [µM] | TGI (BT-549 breast) [µM]
1 | Cc1ccc2c(c1)CC1(Cc3ccccc3C1=O)C2=O (configuration not stated) | > 100 | > 100 | > 100 | > 100 | > 100 | > 100 | > 100 | > 100 | > 100 | > 100 | > 100 | > 100 | > 100 | > 100 | > 100 | > 100 | > 100 | > 100 |  | 
2 | CCCCC1Cc2ccccc2-c2nc3ccccc3n21 (configuration not stated) | 61.9 |  | 31 | 27.8 | 0.231 | 30.8 | 35.4 |  | 29.2 | 39.5 | 31.4 | 22.1 | 32.5 |  | 31.5 | 32.2 |  | 36.1 | 31.9 | 
3 | CN(C)CCCN=c1c2ccccc2n(O)c2ccccc12 | > 100 | > 100 | > 100 |  | > 100 | > 100 | > 100 | > 100 | > 100 | 72.7 | > 100 | > 100 | > 100 | > 100 | > 100 | > 100 | > 100 | > 100 | > 100 | 63.4
4 | C[N+]1(C)CCc2cc(O)c(O)cc2C1Cc1ccc(O)c(O)c1 (configuration not stated) | > 100 | > 100 | > 100 |  | 54.8 | 63.7 | > 100 | 91.4 | 89.1 | > 100 | > 100 | > 100 | 65.9 | > 100 | > 100 | 86.9 | > 100 | > 100 | > 100 | > 100
5 | CSc1cc(Cl)c(C)cc1S(=O)(=O)NC(=O)NNc1cccc(C(F)(F)F)n1 | > 100 | > 100 | > 100 | > 100 |  |  | > 100 | > 100 | > 100 | > 100 | > 100 | > 100 |  | > 100 |  |  |  |  | > 100 | 
6 | CCO/C=N\C1=C(C#N)SC2=N/C(=C\c3ccc(OC)cc3)C(=O)N21 | > 100 | > 100 | > 100 | > 100 | > 100 | > 100 | > 100 | > 100 | > 100 | > 100 | > 100 |  | > 100 | > 100 | > 100 | > 100 |  | > 100 | > 100 | 
7 | Cc1ccc2c3c1O[C@H]1c4[nH]c5ccccc5c4C[C@@]4(O)[C@@H](C2)N(CC2CC2)CC[C@]314 | 27.1 | 29.7 | 30.9 | 12.5 | 22.4 | 27.5 |  | 28.4 | 30.5 | 30.5 | 35.1 | 24.9 | 29.4 | 29.1 | 31.7 | 32.8 | 30.1 | 26.8 | 30.4 | 35.7
8 | CCN(CC)CCSc1c2cc(OC)ccc2nc2ccc(OC)cc12 | 4.1 | > 70.9 | 3.12 | 40.5 | > 100 | 4.61 |  | 7.74 | 8.97 | 53.8 | 44.5 | 12.1 | 6.96 | 9.75 | 22.1 | 16.4 | 33.5 |  | 22.9 | 21
9 | CCOc1ncn(-c2ccc(NC(=S)NC3OC(CO)C(O)C(O)C3O)cc2)n1 (configuration not stated) | > 100 | > 100 |  | > 100 | > 100 | > 100 |  |  | > 100 |  | > 100 | > 100 | > 100 | > 100 | > 100 | > 100 | > 100 | > 100 |  | > 100
10 | c1ccc(CNc2nncc3[nH]cnc23)cc1 | > 100 | > 100 | > 100 | > 100 | > 100 | > 100 |  | > 100 | > 100 | > 100 | > 100 | > 100 | > 100 | > 100 | > 100 | > 100 | > 100 | > 100 | > 100 | > 100
11 | O=C1CC(c2cccc([N+](=O)[O-])c2)C2(C(=O)NC(=O)NC2=O)C(c2cccc([N+](=O)[O-])c2)C1 (configuration not stated) | > 100 | > 100 | > 100 |  | > 100 | > 100 | > 100 | 61.8 | > 100 | > 100 | > 100 | > 100 | > 100 | > 100 |  | > 100 | > 100 | > 100 |  | > 100
12 | COC(=O)C1=CS/C(=C2\S[C@@H]3[C@H](S2)[C@H]2C=C[C@@H]3C2)S1 | > 100 | > 100 |  |  | 57.9 | > 100 | > 100 | > 100 | > 100 | > 100 |  | > 100 | > 100 | > 100 | > 100 | > 100 | > 100 | > 100 | > 100 | > 100
13 | CC(CC[C@@]1(C)C(=O)CCC2O[C@]21C)[C@H]1C[C@@H](c2ccoc2)OC1=O (some centres not stated) | 63.1 | > 100 | 48 | > 100 | 47.6 | 86.9 | > 100 | 81.3 | > 100 | > 100 | > 100 | > 100 | 88.7 | 79.9 | 94.4 | > 100 | > 100 | 35.2 | 71.8 | 
14 | O=C(c1cccs1)N1CCc2ccccc2C1 | > 100 | > 100 | > 100 | > 100 | 76 | > 100 | > 100 | > 100 | 92.3 | > 100 | > 100 | > 100 | > 100 | > 100 | > 100 | > 100 | > 100 | > 100 | > 100 | 
15 | O=[N+]([O-])c1ccc(S(=O)(=O)n2c3ccc(Br)cc3c3nc4ccccc4nc32)cc1 | > 100 | > 100 | > 100 | > 100 |  | > 100 | > 100 |  | > 100 | > 100 | > 100 | > 100 | > 100 | > 100 | > 100 | > 100 | > 100 | > 100 | > 100 | 
16 | CSc1nnc(SC)nn1 | 27.1 | 43.3 | 30.5 |  | 11.6 | 14.8 | 77.1 | 27 | 30.1 | 96.5 | 33.6 | 33.7 | 32.7 | 39.7 | 25.8 | 30.3 | 34 | 29.5 | 31.4 | 29.7
17 | CCCc1c(O)nc(Nc2nc3ccccc3[nH]2)[nH]c1=O | > 100 | > 100 | > 100 |  | > 100 | > 100 | > 100 | > 100 | > 100 | > 100 | > 100 | > 100 | > 100 | > 100 | > 100 | > 100 | > 100 | > 100 | > 100 | > 100
18 | CC(C)=CCC(O)[C@](C)(O)[C@H]1[C@H](O)C[C@@]2(C)[C@@H]3CCc4cc(O)c(OC5OC(CO)C(O)C(O)C5O)cc4C3(C)C(=O)C[C@]12C (some centres not stated) | > 100 | > 100 | > 100 | > 100 |  | > 100 |  | > 100 | > 100 | > 100 | > 100 | > 100 |  | > 100 | > 100 | > 100 | > 100 | > 100 | > 100 | > 100
19 | COc1cc(OC)c2c(C)cc(=O)oc2c1 | > 100 | > 100 | > 100 |  |  |  | > 100 | > 100 | > 100 | > 100 | > 100 | > 100 | > 100 | > 100 | > 100 | > 100 | > 100 | 79.5 |  | 
20 | CC(C)=C[C@H]1CCC2(OCCO2)[C@]1(C)CO | > 100 | > 100 | > 100 | > 100 |  |  |  | > 100 | > 100 | > 100 | > 100 | > 100 | > 100 | > 100 | > 100 | > 100 |  | > 100 | > 100 | > 100
21 | CC(C)=C[C@H]1CCC2(OCCO2)[C@]1(C)COCc1ccccc1 | 80.1 | > 100 | > 100 | 37.4 |  |  |  | > 100 | > 100 | 46.8 | 82.1 | > 100 | 41.9 | 68.5 | > 100 | 46.4 |  | > 100 | > 100 | > 100
22 | CN(C(=O)Cc1cccc(N=C=S)c1)[C@H]1CCCC[C@@H]1N1CCCC1 | 28.6 | 33.9 | 27.2 |  |  | 29 | 45 | 40.5 | 27.7 |  | 36.1 | 32.2 | 32.3 | 29.5 | 24.3 | 28.9 | 29.4 | 29.3 | 29.5 | 23.8
23 | CCOC(C)O[C@H]1C(=O)OCC1(C)C (some centres not stated) | > 100 | > 100 | > 100 | > 100 | > 100 | > 100 | > 100 | > 100 | > 100 | > 100 | > 100 | > 100 | > 100 |  | > 100 | > 100 | > 100 | > 100 | > 100 | 
24 | N#CCCC(CCC#N)(CCC#N)NO | > 100 | > 100 | > 100 |  | > 100 | > 100 | > 100 | > 100 | > 100 | > 100 | > 100 | > 100 | > 100 | > 100 | > 100 | > 100 | > 100 | > 100 | > 100 | > 100
25 | CC1S/C(=N\N=C2/C(=O)Nc3ccc(Br)cc32)N(C2CCCCC2)C1=O (configuration not stated) | 6.01 | 12.6 | 3.24 | 45 | > 100 | 25.4 | 14.4 | 31.1 | > 100 | 18 | > 100 | 19.9 | > 100 | 12.3 | 6.58 | > 100 | 6.75 | 3.08 | 6.39 | 
26 | N#Cc1[nH]c(=O)n(-c2ccccc2)c1N | > 10 | > 10 | > 10 | > 10 | > 10 |  | > 10 | > 10 | > 10 | > 10 | > 10 | > 10 | > 10 | > 10 | > 10 | > 10 | > 10 | > 10 |  | 
27 | N#C/C(=C/NC(N)=S)C(N)=O | > 100 | > 100 | > 100 | > 100 | > 100 | > 100 |  |  | > 100 | > 100 | > 100 |  |  | > 100 | > 100 | > 100 |  | > 100 | > 100 | > 100
